Data set [1] has as its system MCF‐7 cells. Briefly: Cell growth inhibition assay (Crystal Violet). The settings on record: MCF‐7 breast adenocarcinoma cells, 96 h incubation, mean ± SD of three independent experiments. In kind it is cell-based, human. The procedure:
(§1) The capability of the gold(III) complexes Au1‐5, the gold(I)‐phosphine derivatives AuP1‐5, and the gold(I)‐carbene counterparts AuC1‐5 to inhibit cell proliferation was assayed on three human tumor cell lines, namely, colorectal adenocarcinoma (HT‐29), metastatic breast adenocarcinoma (MDA‐MB‐231), and breast adenocarcinoma (MCF‐7) cells, whereas human non‐malignant kidney epithelial (RC‐124) cells were used as non‐tumor reference cell line. […]
(§2) high-glucose Dulbecco’s Modified Eagle’s Medium (4.5 g L-1 D-glucose, 4 mM L-glutamine, 1 mM sodium pyruvate, 1.5 g L-1 sodium bicarbonate; Life Technologies). […]
(§3) Cells were cultured at 37°C in 5% CO2 and moisture-enriched atmosphere in the respective medium […]
(§4) (Biochrom) and passaged once a week. […]
(§5) Cell growth inhibition assay
(§6) Stock solutions of the gold(III) complexes Au1-5, and the gold(I) complexes AuP1-5 and AuC1-5 in DMF were freshly prepared and subsequently diluted with the appropriate complete cell culture medium […]
(§7) The in vitro antiproliferative activity of the various gold complexes was determined following a modified protocol previously reported.[68] 100 µL of HT-29 cells (2.5×10^3 cells mL-1), MDA-MB-231 cells […]
(§8) in 96-well cell culture plates and incubated at 37°C in 5% CO2 humidified atmosphere (note: for RC-124, pre-treated plates were used as mentioned above). After 72 h (MDA-MB-231, MCF-7, RC-124) or 48 h (HT-29), cells were treated with the test compounds at different concentrations (0.01-50 µM) and incubated for further 72 h (HT-29) or 96 h (MDA-MB-231, MCF-7, RC-124) at 37°C. The medium was then discarded, cells were washed with fresh PBS solution and harvested, and the Crystal Violet (Sigma-Aldrich/Merck) staining assay was performed to determine cell viability. The inhibition of cell growth induced by the tested compounds was assessed by measuring the absorbance of each well at 590 nm using a Victor X4 microplate reader (Perkin Elmer). Antiproliferative data are expressed as IC50 values, that is, the concentration (μM) of the test agent inhibiting cell proliferation by 50% compared with untreated […]
(§9) control cultures. […]

Data set [2] concerns HT‐29 cells. Briefly: Cell growth inhibition assay (Crystal Violet). In kind it is cell-based, human. Conditions: HT‐29 colorectal adenocarcinoma cells, 72 h incubation, mean ± SD of three independent experiments. The procedure: as §1, §2, §3, §4, §5, §6, §7, §8, §9
In data set [3] the test system is MDA‐MB‐231 cells. Briefly: Cell growth inhibition assay (Crystal Violet). In kind it is cell-based, human. Conditions: MDA‐MB‐231 metastatic breast adenocarcinoma cells, 96 h incubation, mean ± SD of three independent experiments. The procedure:
as §1, §2, §3, §4, §5, §6, §7, §8, §9

Data set [4] deals with MCF‐7 cells. Briefly: Cellular uptake of gold (HR‐CS AAS). The data set is classed as cell-based, human. The settings on record: 10 μM, 6 h. The procedure: It is often assumed that the antiproliferative activity of gold complexes is strongly linked to the efficiency of their cellular uptake and internalization. Moreover, glycoconjugates are commonly believed to enter cells through GLUTs, which, as discussed earlier, are generally over‐expressed in several cancer cells. In particular, GLUT1 is crucial for the uptake of glucose by breast cancer cells, including MDA‐MB‐231 and MCF‐7.^[ [70] ^] […] The gold levels were determined by high‐resolution continuum‐source atomic absorption spectroscopy (HR‐CS AAS) after exposure to 10 μM concentration of the selected compounds over 6 h using either a high‐glucose‐contents or glucose‐free cell culture medium. […]
(§10) The in vitro antiproliferative activity of the various gold complexes was determined following a modified protocol previously reported.[68] […]
in 96-well cell culture plates and incubated at 37°C in 5% CO2 humidified atmosphere (note: for RC-124, pre-treated plates were used as mentioned above). […] The inhibition of cell growth induced by the tested compounds was assessed by measuring the absorbance of each well at 590 nm using a Victor X4 microplate reader (Perkin Elmer). […] Results were calculated as the mean values ± standard deviation (SD) of three […]

In data set [5] the test system is HT‐29, MDA‐MB‐231 and MCF‐7 cells. Briefly: Cell growth inhibition, stated over all tested tumor cell lines. In kind it is cell-based, human. Conditions: HT‐29, MDA‐MB‐231, MCF‐7. The procedure:
as §1, §2, §3, §4
Cell growth inhibition assay […]
as §10
in 96-well cell culture plates and incubated at 37°C in 5% CO2 humidified atmosphere (note: for RC-124, pre-treated plates were used as mentioned above). […] The inhibition of cell growth induced by the tested compounds was assessed by measuring the absorbance of each well at 590 nm using a Victor X4 microplate reader (Perkin Elmer). […]

Data set [6] has as its system RC‐124 cells. Briefly: Cell growth inhibition assay (Crystal Violet), non-tumor reference. The data set is classed as cell-based, human. Conditions: RC‐124 non‐malignant kidney epithelial cells, 96 h incubation, mean ± SD of three independent experiments. The procedure:
as §1
Human non-malignant kidney epithelial (RC-124) cells were maintained in McCoy’s 5A Medium (modified to contain 1.5 mM L-glutamine and 2.2 g L-1 sodium bicarbonate; Life Technologies).
as §3
(Biochrom) and passaged once a week.
For experiments involving RC-124 cells, microtiter plates were pre-treated as follows. 30 µL of a 1.5% m/v sterilized gelatine solution were added to each well of flat-bottomed 96-well plates, plates were covered with their lids and incubated for 1 h at 37°C. The excess solution was then removed, wells were washed with PBS solution (pH 7.4), and new cell culture medium was added.
as §5, §6, §7, §8, §9

Data set [7] can be described thus: Stability in PBS by UV–Vis. The settings on record: PBS pH 7.4, 37°C, 25 μM, UV–Vis over time. The data set is classed as physicochemical. The procedure: DMSO and DMF are solvents commonly used to prepare stock solutions of metal complexes prior to performing biological studies, especially if poorly soluble in aqueous media. […] However, to mimic a physiological‐like environment, stability studies in phosphate‐buffered saline (PBS) solution at pH 7.4 and 37°C were carried out for the various gold complexes by UV–Vis spectrophotometry.

With `NC(=O)C1CCN(C(=S)[S][Au][PH](c2ccccc2)(c2ccccc2)c2ccccc2)CC1` [AuP2, [Au^I(SSC‐Inp‐NH2)(PPh3)]], the IC50 in data set [1] amounted to 1.3 ± 0.1 µM; in data set [2], 2.9 ± 0.7 µM; in data set [3], 1.4 ± 0.3 µM.
Turning to `CO[C@H]1O[C@H](CO)[C@@H](O)[C@H](O)[C@H]1NC(=O)C1CCN(C(=S)[S][Au][PH](c2ccccc2)(c2ccccc2)c2ccccc2)CC1` [AuP4, [Au^I(SSC‐Inp‐GlcN2)(PPh3)]], the IC50 worked out at 2.4 ± 0.4 µM in data set [1], 6.3 ± 0.5 µM in data set [2] and 2.4 ± 0.7 µM in data set [3].
With `NC(=O)C1CCN(C2=[S+][Au-]([Br])([Br])[S]2)CC1` [Au2, [Au^IIIBr2(SSC‐Inp‐NH2)]], the “Gold content (intracellular gold)” value in data set [4] (with or without glucose (4.5 g L^−1) and with or without Cytochalasin B 50 μM) was “consistently similar cellular uptake values”. The “IC50 values over the tested tumor cell lines” value in data set [5] is listed as “low micromolar range”. The 50% inhibitory concentration (IC50) in data set [6] is 9.9 ± 0.8 µM; in data set [1], 5.1 ± 1 µM; in data set [2], 20.1 ± 0.1 µM; in data set [3] it was 8.9 ± 1.1 µM.
Regarding `CCn1[c]([Au-][S]C(=S)N2CCC(C(=O)NC3C(O)OC(CO)C(O)C3O)CC2)[n+](CC)c2ccccc21` (mixture of isomers) [AuC3, [Au^I(SSC‐Inp‐GlcN1)(Et2BzImy)]], the IC50 in data set [1] amounted to 12.3 ± 1.4 µM; in data set [2], 22.7 ± 1 µM; in data set [3], 11.5 ± 0.6 µM.
For the molecule `O=C(NC1C(O)OC(CO)C(O)C1O)C1CCN(C(=S)[S][Au][PH](c2ccccc2)(c2ccccc2)c2ccccc2)CC1` (mixture of isomers) [AuP3, [Au^I(SSC‐Inp‐GlcN1)(PPh3)]], the IC50 in data set [1] came out at 2.6 ± 0.4 µM; in data set [2], 8.8 ± 1.6 µM; in data set [3], 2.4 ± 0.8 µM.
The matching figures for `CCn1[c]([Au-][S]C(=S)N2CCC(C(=O)N[C@H]3[C@@H](OC)O[C@H](CO)[C@@H](O)[C@@H]3O)CC2)[n+](CC)c2ccccc21` [AuC4, [Au^I(SSC‐Inp‐GlcN2)(Et2BzImy)]]: 10.3 ± 0.3 µM, 11.3 ± 0.4 µM and 10.5 ± 0.4 µM.
In the case of `O=C(NC1C(O)OC(CO)C(O)C1O)C1CCN(C2=[S+][Au-]([Br])([Br])[S]2)CC1` (mixture of isomers) [Au3, [Au^IIIBr2(SSC‐Inp‐GlcN1)]], the IC50 in data set [6], in data set [1], in data set [2] and in data set [3] was over 50 µM each time.
Take `CCn1[c]([Au-][S]C(=S)N2CCC(C(N)=O)CC2)[n+](CC)c2ccccc21` [AuC2, [Au^I(SSC‐Inp‐NH2)(Et2BzImy)]]: the IC50 in data set [1] was determined as 4.9 ± 0.6 µM; in data set [2] it was 6.4 ± 1.3 µM; in data set [3], 4.7 ± 0.3 µM.
For the molecule `CCn1[c]([Au-][S]C(=S)N2CCC(C(=O)NC[C@H]3O[C@H](OC)[C@H](O)[C@@H](O)[C@@H]3O)CC2)[n+](CC)c2ccccc21` [AuC5, [Au^I(SSC‐Inp‐GlcN3)(Et2BzImy)]], the results for the half-maximal inhibitory concentration (IC50) in data set [1], in data set [2] and in data set [3] were 10.6 ± 0.6 µM, 11.8 ± 1.1 µM and 9.6 ± 1.5 µM, respectively. The “Stability in PBS” value in data set [7] is given as “major spectral changes occur soon after dissolution”.
On to `CO[C@H]1O[C@H](CO)[C@@H](O)[C@H](O)[C@H]1NC(=O)C1CCN(C2=[S+][Au-]([Br])([Br])[S]2)CC1` [Au4, [Au^IIIBr2(SSC‐Inp‐GlcN2)]], for which the “Gold uptake in glucose‐ and Cytochalasin B‐free medium versus conditions with glucose, Cytochalasin B, or both” value in data set [4] (not statistically significant) is given as “slightly higher”. The IC50 was 48.2 ± 13.2 µM in data set [6], over 50 µM in data set [1], over 50 µM in data set [2] and over 50 µM in data set [3].
In the case of `CO[C@H]1O[C@H](CNC(=O)C2CCN(C3=[S+][Au-]([Br])([Br])[S]3)CC2)[C@@H](O)[C@H](O)[C@H]1O` [Au5, [Au^IIIBr2(SSC‐Inp‐GlcN3)]], the half-inhibitory concentration (IC50) in data set [6] is 18.8 ± 1.7 µM; in data set [1], over 50 µM; in data set [2] it was over 50 µM; in data set [3], over 50 µM.
In the case of `CCOC(=O)C1CCN(C(=S)[S][Au][PH](c2ccccc2)(c2ccccc2)c2ccccc2)CC1` [AuP1, [Au^I(SSC‐Inp‐OEt)(PPh3)]], the figures for the concentration for half-maximal inhibition (IC50) in data set [1], in data set [2] and in data set [3] were 0.2 ± 0.1 µM, 0.5 ± 0.1 µM and 0.6 ± 0.2 µM, respectively.
The matching figures for `CO[C@H]1O[C@H](CNC(=O)C2CCN(C(=S)[S][Au][PH](c3ccccc3)(c3ccccc3)c3ccccc3)CC2)[C@@H](O)[C@H](O)[C@H]1O` [AuP5, [Au^I(SSC‐Inp‐GlcN3)(PPh3)]]: 2.5 ± 0.4 µM, 6.7 ± 1.1 µM and 2.5 ± 0.5 µM.
As for `CCOC(=O)C1CCN(C2=[S+][Au-]([Br])([Br])[S]2)CC1` [Au1, [Au^IIIBr2(SSC‐Inp‐OEt)]], the “IC50 values over the tested tumor cell lines” value in data set [5] is on record as “low micromolar range”. Moreover, the IC50 in data set [6] worked out at 0.6 ± 0.1 µM; in data set [1], 0.8 ± 0.1 µM; in data set [2], 1.2 ± 0.2 µM; in data set [3], 1.4 ± 0.2 µM.
In the case of `CCOC(=O)CN(C)C(=S)[S][Au]=[c]1n(CC)c2ccccc2n1CC` [AuC1, [Au^I(SSC‐Sar‐OEt)(Et2BzImy)]], the IC50 in data set [6] was 0.6 ± 0.1 µM; in data set [1], 0.5 ± 0.1 µM; in data set [2] it was 1 ± 0.1 µM; in data set [3], 0.8 ± 0.1 µM.
